{"source": "patent US4956362A", "about": "“Use of carpipramine for the treatment of anxiety and sleep disorders” (Rhone-Poulenc Sante, a French Body Corporate, priority 1988, dated 1990)", "key": {"[1]": {"target": "T1, central serotonin receptor sites (type S2) (Rattus norvegicus, UniProt P14842)", "T1 construct": "central serotonin receptor sites (type S2); from tissue; the cited Leysen 1982 method used rat prefrontal/frontal cortex, own knowledge", "T1 sequence (P14842 whole entry)": "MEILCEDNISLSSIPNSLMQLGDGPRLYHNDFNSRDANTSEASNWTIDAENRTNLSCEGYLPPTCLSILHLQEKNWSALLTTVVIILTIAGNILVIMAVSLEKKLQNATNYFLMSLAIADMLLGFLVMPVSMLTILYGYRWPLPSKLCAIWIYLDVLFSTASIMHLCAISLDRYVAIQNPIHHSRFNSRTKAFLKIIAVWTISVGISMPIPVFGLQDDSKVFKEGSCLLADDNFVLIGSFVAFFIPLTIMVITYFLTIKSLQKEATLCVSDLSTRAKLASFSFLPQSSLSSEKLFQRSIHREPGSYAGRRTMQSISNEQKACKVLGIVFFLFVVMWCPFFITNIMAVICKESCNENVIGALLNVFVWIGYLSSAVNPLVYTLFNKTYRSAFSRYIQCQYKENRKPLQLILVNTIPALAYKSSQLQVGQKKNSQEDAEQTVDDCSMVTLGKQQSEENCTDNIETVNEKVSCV", "assay": "Affinity for central serotonin receptor sites (type S2), tritiated ketanserin binding", "protocol": "The affinity of carpipramine for central serotonin receptor sites (type S2) was determined by a technique based on that of J. E. LEYSEN et al., Mol. Pharmacol. 21, 301 (1982), which consists in measuring the affinity of the product for binding sites for tritiated ketanserin. In this test, the IC50 of carpipramine is 3 nM."}, "[2]": {"test_system": "mescaline-induced heat twitches", "assay": "Antagonism of mescaline-induced heat twitches in mice", "assay_type": "in vivo", "conditions": "Mus musculus, sc, subcutaneously administered, read-out: AD50 (the source's name)", "protocol": "In this test, the AD50 of subcutaneously administered carpipramine is 8 mg/kg."}, "[3]": {"assay": "Acute oral toxicity in mice", "conditions": "mouse, in vivo, po; administered orally in mice"}, "[4]": {"test_system": "mice", "assay": "Acute oral toxicity in mice", "conditions": "mouse, in vivo"}}}
{"smiles": "NC(=O)C1(N2CCCCC2)CCN(CCCN2c3ccccc3CCc3ccccc32)CC1", "note": "[carpipramine, 5-[3-(4-carbamoyl-4-piperidinopiperidino)-1-propyl]-10,11-dihydrodibenz[b,f]azepine]", "values": [{"measurement": "IC50", "setting": "[1]", "value": 3, "unit": "nM"}, {"measurement": "ED50", "setting": "[2]", "value": 8, "unit": "mg/kg"}, {"measurement": "LD50", "setting": "[3]", "value": 250, "unit": "mg/kg"}, {"measurement": "toxicity", "setting": "[4]", "value": "low toxicity"}]}
